The structures appear in SMILES notation.

For the assay, the system named is mesenteric artery. Briefly: Relaxation of Mesenteric Artery (isolated rabbit mesenteric artery contracted with KCl). As to conditions: Oryctolagus cuniculus, concentration for 50% relaxation, KCl 15~20 mM contraction, read-out: Relaxation of Mesenteric Artery ED50. The method, then: When, for example, 1-[4-(N-methyl-N-cyclohexylamino)-6-quinazolinesulfonyl]-4-(2-ethoxy-2-phenylethyl)piperazine was added and a complete relaxation was designated 100%, the concentration which could bring about a relaxation of 50%, i.e., ED50 was 0.8 μM.
After a home bred rabbit of a Japanese species weighing about 3 Kg was subjected to bloodletting, resulting in death and then to abdominal incision, the mesenteric artery was taken out, cut into helicoids of 2 mm×25 mm and suspended in a 20 ml organ bath filled with a Krebs-Henseleit solution into which a mixed gas of 95% by volume of O2 and 5% by volume of CO2 was introduced and one end of the artery was connected with an isometric transducer. When a load of 1.5 g was applied to the artery, the contraction and the relaxation of the artery was recorded as a weight on the transducer (a product of Nippon Koden K.K., Japan, "FD Pickup TB-912T"). The relaxation of the mesenteric artery was observed by adding the 6-quinazolinesulfonyl derivatives and their pharmaceutically acceptable acid addition salts to the mesenteric artery at the condition of about one half of the maxinum contraction with KCl at a KCl concentrantion of 15~20 mM. When the complete relaxation of the mesenteric artery was designated 100%, the concentration of the 6-quinazolinesulfonyl derivatives and their pharmaceutically acceptable acid addition salts which brought about a relaxation of 50% is shown in Table 6.
On to `CC(C)COC(CN1CCN(S(=O)(=O)c2ccc3ncnc(N(C)C4CCCCC4)c3c2)CC1)c1ccccc1` (centres unmarked) [Compound (28), 1-[4-(N-methyl-N-cyclohexylamino)-6-quinazolinesulfonyl]-4-(2-isobutoxy-2-phenylethyl)piperazine], for which the EC50 came to 1.3 µM. Next, `CCCCCCN(CCCCCC)c1ncnc2ccc(S(=O)(=O)NCCCCN)cc12` [Compound (38), N-(4-aminobutyl)-4-dihexylamino-6-quinazolinesulfonamide]: 12 µM. Next, `CCOC(CN1CCN(S(=O)(=O)c2ccc3ncnc(N4CCOCC4)c3c2)CC1)c1ccccc1` (centres unmarked) [Compound (14), 1-(4-morpholino-6-quinazolinesulfonyl)-4-(2-ethoxy-2-phenylethyl)-piperazine]: 9.5 µM; `NCCNS(=O)(=O)c1ccc2ncnc(N3CCCCC3)c2c1` [Compound (29), N-(2-aminoethyl)-4-piperidino-6-quinazolinesulfonamide]: 33 µM.

As to `CCOC(CN1CCN(S(=O)(=O)c2ccc3ncnc(Nc4ccccc4)c3c2)CC1)c1ccccc1` (centres unmarked) [Compound (16), 1-(4-anilino-6-quinazolinesulfonyl)-4-(2-ethoxy-2-phenylethyl)piperazine], the EC50 worked out at 2.7 µM. Next, `COC(CN1CCN(S(=O)(=O)c2ccc3ncnc(N4CCCCC4)c3c2)CC1)c1ccccc1` (centres unmarked) [Compound (5), 1-(4-piperidino-6-quinazolinesulfonyl)-4-(2-methoxy-2-phenylethyl)-piperazine]: 5.8 µM; `CC(C)OC(CN1CCN(S(=O)(=O)c2ccc3ncnc(N4CCCCC4)c3c2)CC1)c1ccccc1` (centres unmarked) [Compound (7), 1-(4-piperidino-6-quinazolinesulfonyl)-4-(2-isopropoxy-2-phenylethyl)-piperazine]: 2.2 µM; `CCOC(CN1CCN(S(=O)(=O)c2ccc3ncnc(N(C)C)c3c2)CC1)c1ccccc1` (centres unmarked) [Compound (2), 1-(4-dimethylamino-6-quinazolinesulfonyl)-4-(2-ethoxy-2-phenylethyl)-piperazine]: 4.5 µM. Next, `CCOC(CN1CCN(S(=O)(=O)c2ccc3ncnc(N(CC(C)C)C4CCCCC4)c3c2)CC1)c1ccccc1` (centres unmarked) [Compound (22), 1-[4-(N-isobutyl-N-cyclohexylamino)-6-quinazolinesulfonyl]-4-(2-ethoxy-2-phenylethyl)piperazine]: 2.5 µM.

For `COC(CN1CCN(S(=O)(=O)c2ccc3ncnc(N(C)C4CCCCC4)c3c2)CC1)c1ccccc1` (centres unmarked) [Compound (26), 1-[4-(N-methyl-N-cyclohexylamino)-6-quinazolinesulfonyl]-4-(2-methoxy-2-phenylethyl)piperazine], the EC50 worked out at 1.4 µM. Next, `NCCCCNS(=O)(=O)c1ccc2ncnc(N3CCCC3)c2c1` [Compound (34), N-(4-aminobutyl)-4-(1-pyrrolidinyl)-6-quinazolinesulfonamide]: 27 µM; `NCCCNS(=O)(=O)c1ccc2ncnc(N3CCCCC3)c2c1` [Compound (30), N-(3-aminopropyl)-4-piperidino-6-quinazolinesulfonamide]: 30 µM; `CCOC(CN1CCN(S(=O)(=O)c2ccc3ncnc(NCc4ccccc4)c3c2)CC1)c1ccccc1` (centres unmarked) [Compound (17), 1-(4-benzylamino-6-quinazolinesulfonyl)-4-(2-ethoxy-2-phenylethyl)-4-(2-ethoxy-2-phenylethyl)piperazine]: 3.2 µM. To `CN(C)c1ncnc2ccc(S(=O)(=O)NCCCCN)cc12` [Compound (35), N-(4-aminobutyl)-4-dimethylamino-6-quinazolinesulfonamide] belongs 54 µM. To `CCN(CC)c1ncnc2ccc(S(=O)(=O)NCCCCN)cc12` [Compound (36), N-(4-aminobutyl)-4-diethylamino-6-quinazolinesulfonamide] belongs 50 µM. Consider `CC(C)COC(CN1CCN(S(=O)(=O)c2ccc3ncnc(N4CCCCC4)c3c2)CC1)c1ccccc1` (centres unmarked) [Compound (8), 1-(4-piperidino-6-quinazolinesulfonyl)-4-(2-isobutoxy-2-phenylethyl)-piperazine], for which the EC50 is 10.7 µM. To `CCOC(CN1CCN(S(=O)(=O)c2ccc3ncnc(NC4CCCCC4)c3c2)CC1)c1ccccc1` (centres unmarked) [Compound (15), 1-(4-cyclohexylamino-6-quinazolinesulfonyl)-4-(2-ethoxy-2-phenylethyl)-piperazine] belongs 1.6 µM; to `CC(C)OC(CN1CCN(S(=O)(=O)c2ccc3ncnc(N(C)C4CCCCC4)c3c2)CC1)c1ccccc1` (centres unmarked) [Compound (27), 1-[4-(N-methyl-N-cyclohexylamino)-6-quinazolinesulfonyl]-4-(2-isopropoxy-2-phenylethyl)piperazine], 0.9 µM; to `CCOC(CN1CCN(S(=O)(=O)c2ccc3ncnc(N)c3c2)CC1)c1ccccc1` (centres unmarked) [Compound (1), 1-(4-amino-6-quinazolinesulfonyl)-4-(2-ethoxy-2-phenylethyl)piperazine], 9.8 µM. To `NCCCCCCCCCCNS(=O)(=O)c1ccc2ncnc(N3CCCCC3)c2c1` [Compound (33), N-(10-aminodecyl)-4-piperidino-6-quinazolinesulfonamide] belongs 34 µM; to `CCOC(CN1CCN(S(=O)(=O)c2ccc3ncnc(N(C)C4CCCC4)c3c2)CC1)c1ccccc1` (centres unmarked) [Compound (18), 1-[4-(N-methyl-N-cyclopentylamino)-6-quinazolinesulfonyl]-4-(2-ethoxy-2-phenylethyl)piperazine], 1.4 µM. Next, `CCOC(CN1CCN(S(=O)(=O)c2ccc3ncnc(N(C)C4CCCCCC4)c3c2)CC1)c1ccccc1` (centres unmarked) [Compound (20), 1-[4-(N-methyl-N-cycloheptylamino)-6-quinazolinesulfonyl]-4-(2-ethoxy-2-phenylethyl)piperazine]: 3.7 µM.

In the case of `CCOC(CN1CCN(S(=O)(=O)c2ccc3ncnc(N(CC)CC)c3c2)CC1)c1ccccc1` (centres unmarked) [Compound (3), 1-(4-diethylamino-6-quinazolinesulfonyl)-4-(2-ethoxy-2-phenylethyl)-piperazine], the EC50 is 5 µM.

(Values after patent US4510307A, “6-Quinazolinesulfonyl derivatives and process for preparation thereof” (Asahi Kasei Kogyo Kabushiki Kaisha, priority 1980, dated 1985).)
